Data published in US20110237686A1, “FORMULATIONS AND METHODS OF USE” (Cerulean Pharma Inc, priority 2010, published 2011).
Where “and” joins values, the source holds several entries; their conditions need not be identical. Equal entries are not always repeated.

Columns and labels:
[1] = test system: B16.F10 murine melanoma model; experiment: Efficacy and tolerability of PEGylated docetaxel-5050 PLGA-O-acetyl nanoparticles in B16.F10 murine melanoma model; format: in vivo, mouse
Method: Refer to table for detailed description of formulations.
Tumor volume was calculated with the following equation: (width×width×length)/2 mm3.

[2] = test system: MDA-MB-435 melanoma human xenograft model; experiment: In vivo efficacy in MDA-MB-435 melanoma human xenograft model; set-up: species or system mouse
Method: MDA-MB-435 cells were grown in culture to confluency in RPMI medium containing 10% FBS and 1% penicillin/streptomycin and then resuspended in RPMI (passage 4) for implantation into mice. A volume of 0.1 mL containing 4.0×10^6 cells MDA-MB-435 cells were implanted into the mammary gland of female CD-1 nude mice on Day 1.

[3] = test system: SK-OV-3 ovarian human xenograft model; experiment: In vivo efficacy in SK-OV-3 ovarian human xenograft model; set-up: species or system mouse
Method: SK-OV-3 cells were grown in culture to confluency in RPMI medium containing 10% FBS and 1% penicillin/streptomycin and then resuspended in RPMI (passage 4) for implantation into mice. […]

B16.F10 cells = experiment: CellTiter-Glo Luminescent Cell Viability Assay (cytotoxicity of nanoparticles); format: cell-based, mouse; conditions: for IC50: Mus musculus, B16.F10 cells, 24, 48 and 72 hours of incubation tested, time of the IC50 not stated
Method: The Cytotoxicity of nanoparticles formed from polymer drug conjugates was evaluated using the following protocol. […] B16.F10 cells, grown to 85-90% confluency in 150 cm^2 flasks (passage<30), were resuspended in media (MEM-alpha, 10% HI-FBS, 1× antibiotic-antimycotic) and added to 96-well opaque-clear bottom plates at a concentration of 1500 cells/well in 200 μL/well. The cells were incubated at 37° C. with 5% CO2 for 24 hours. The following day, serial dilutions of 2×concentrated particles and 2× concentrated free drug were made in 12-well reservoirs with media to specified concentrations. The media in the plates was replaced with 100 μL of fresh media and 100 μL of the corresponding serially diluted drug. Three sets of plates were prepared with duplicate treatments. Following 24, 48 and 72 hours of incubation at 37° C. with 5% CO2, the media in the plates was replaced with 100 μL of fresh media and […] of CTG solution, and then incubated for 5 minutes on a plate shaker at room temperature set to 450 rpm and allowed to rest for 15 minutes. Viable cells were measured by luminescence using a microtiter plate reader. The data was plotted as % viability vs. concentration and standardized to untreated cells.

[4] = test system: HCT-116 colon xenograft model; experiment: In vivo efficacy in HCT-116 colon xenograft model; set-up: species or system mouse; conditions: 30 mg/kg IV; male CD-1 nude mice
Method: HCT-116 cells were grown in culture to confluency in McCoy's 5a medium containing 10% FBS and 1% penicillin/streptomycin and then resuspended in McCoy's 5a (passage 4).
The treatments were administered 1V into the tail vein at the respective dose volumes (refer to previous paragraph), beginning on post-implantation Day 13, when the mean tumor volume was 131 mm3.

[5] = test system: normal male C57BL/6 non-tumor-bearing mice; experiment: Tolerability in normal non-tumor-bearing mice (body weight, CBC, serum chemistry, ataxia, sciatic nerve histology); format: in vivo, mouse; conditions: for Lymphocyte mean / Neutrophil mean / WBC # mean: blood Day 14; for mice developing ataxia / Ataxia (%): n=5/group; for Ataxia (%): intravenous q7d×2, male C57BL/6 mice, to Day 14
Method: Treatments were administered intravenously on a q7d×2 schedule, i.e., two treatments seven days apart (the first treatment was on Day one). The study ended on Day 14, six days after the 2nd treatment. Blood was collected for complete blood count (CBC) and serum chemistry. Leg muscles were collected so that nerve degeneration could be assessed from the sciatic nerve.

[6] = Cryoprotectant screen, sucrose lyophilization cycle; format: physicochemical; conditions: PEGylated nanoparticles A; for Dv90 / PDI / Zave: reconstituted
Method: A cryoprotectant screen was performed as follows.
These conditions are shown below in Table 21.

[7] = Lyophilization using HP-β-CD, freezing with liquid nitrogen and vacuum at room temperature; format: physicochemical; conditions: PEGylated nanoparticles A, polymer 31.25 mg/mL, cryoprotectant 40 mg/mL (1.28:1 w/w), vacuum at room temperature;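 note: cyclodextrins or their derivatives tested as cryoprotectant during lyophilization of PEGylated nanoparticles, assessing particle size growth attributed to PEG crystallization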
Method: In this example, a new strategy of using cyclodextrins and their derivatives as a cryoprotectant was tested. […] A cryoprotectant is needed to lyophilize liquid formulation that contain PEGylated nanoparticles A (Entries #1 and #2).

[8] = Lyophilization of stealth liposome (Doxil); format: physicochemical; conditions: lipids 16 mg/mL, Sucrose lyophilization cycle, post lyophilization
[9] = Simple lyophilization of PLGA7K-PVA-PEG2K-30 and PLGA7K-PVA-PEG5K-30 PEGylated nanoparticle formulations; format: physicochemical; conditions: 2K PEG PLGA nanoparticles 20 mg/mL, cryoprotectant 20 mg/mL (1:1 w/w)
Description: The results are similar to that obtained for PEGylated nanoparticles A except for SB-β-CD. The result from SB-β-CD supported the H-bonding mechanism for cryoprotection of PEGylated PLGA nanoparticles since SB-β-CD has less hydroxyl groups than α-CD, γ-CD and HP-β-CD (about ⅓ of —OH groups of β-CD are substituted by sulfobutyl groups).

[10] = q4dq3dx3, 15 mg/kg IV, male C57BL/6 mice
[11] = q7d schedule, three times once every week, 15 mg/kg
[12] = polymer 10.42 mg/mL (Doce. 0.50), cryoprotectant 100 mg/mL (9.6:1 w/w)
[13] = polymer 20.83 mg/mL (Doce. 1.00), cryoprotectant 100 mg/mL (4.8:1 w/w)
[14] = polymer 26.05 mg/mL (Doce. 1.25), cryoprotectant 100 mg/mL (3.8:1 w/w)
[15] = polymer 31.25 mg/mL (Doce. 1.5), cryoprotectant 100 mg/mL (3.2:1 w/w)
[16] = cryoprotectant 100 mg/mL (6.25:1 w/w lipid)
[17] = cryoprotectant 150 mg/mL (12.5:1 w/w lipid)
[18] = cryoprotectant 200 mg/mL (18.5:1 w/w lipid)

With `CC(=O)O[C@@]12CO[C@@H]1C[C@H](O)[C@@]1(C)C(=O)[C@H](O)C3=C(C)[C@@H](OC(=O)[C@H](O)[C@@H](NC(=O)OC(C)(C)C)c4ccccc4)C[C@@](O)([C@@H](OC(=O)c4ccccc4)[C@H]21)C3(C)C` [Free docetaxel, docetaxel] the “Maximum body weight loss” value ([1]; q3dq4dx3, 15 mg/kg IV, male C57BL/6 mice, listed as Docetaxel) was 12% and 11%, the “Maximum body weight loss” value ([1]; q3dq4dx3, 15 mg/kg IV, male C57BL/6 mice, listed as docetaxel) was 12% and 11% and the “Maximum body weight loss” value [1, 10] was 11%. For the same molecule, the “Tumor growth delay (TGD)” value [1, 10] was 11 days, the “Tumor growth inhibition (TGI)” value [1, 10] was 90% and the “Maximum body weight loss” value ([1]; q7dx3, 30 mg/kg IV, male C57BL/6 mice) was 11%. For the same molecule, the “Maximum body weight loss” value ([1]; q14dx2, 60 mg/kg IV, male C57BL/6 mice, listed as Docetaxel) was 0%, the “Maximum body weight loss” value ([1]; q14dx2, 60 mg/kg IV, male C57BL/6 mice, listed as docetaxel) was “did not show any body weight loss” and the “Maximum body weight loss” value [1, 11] was 11%. For the same molecule, the TGD [1, 11] was 11 days, the “Maximum body weight loss” value ([2]; 15 mg/kg IV Days 21 and 28 (weekly×2)) was 10% and the “Maximum body weight loss” value ([2]; 30 mg/kg IV Days 21 and 28 (weekly×2)) was 14%. For the same molecule, the ataxia ([2]; 30 mg/kg weekly×2) was “did not cause ataxia”, the body weight loss ([2]; 60 mg/kg IV Days 21 and 28 (weekly×2), female CD-1 nude mice) was “greater than 20%” and the ataxia ([2]; 60 mg/kg weekly×2, listed as docetaxel) was “developed ataxia”. For the same molecule, the ataxia ([2]; 60 mg/kg weekly×2, listed as free docetaxel) was “Ataxia was observed”, the “Maximum body weight loss” value ([3]; 30 mg/kg weekly×2) was 13% and the ataxia ([3]; 30 mg/kg weekly×2) was “did not cause ataxia”. For the same molecule, the body weight loss ([3]; 60 mg/kg IV Days 51 and 58 (weekly×2), female CD-1 nude mice) was “greater than 20%”, the ataxia ([3]; 60 mg/kg weekly×2, four days after the second treatment) was “observed in all the mice” and the IC50 (B16.F10 cells) was 0.13 µM. The “Maximum body weight loss” value [4] was 14%, the “body weight above initial on Day 14” value ([5]; 30 mg/kg IV q7d×2) was 3% and the Lymphocyte mean ([5]; 30 mg/kg IV q7d×2) was 4350 cells/μL. For the same molecule, the Neutrophil mean ([5]; 30 mg/kg IV q7d×2) was 556 cells/μL, the “WBC # mean” value ([5]; 30 mg/kg IV q7d×2) was 5.1 ×1000 cells/μL and the mice developing ataxia ([5]; 30 mg/kg IV q7d×2) was “no mice”. The “body weight above initial on Day 14” value ([5]; 45 mg/kg IV q7d×2) was 2%, the Lymphocyte mean ([5]; 45 mg/kg IV q7d×2) was 6780 cells/μL and the Neutrophil mean ([5]; 45 mg/kg IV q7d×2) was 752 cells/μL. For the same molecule, the “WBC # mean” value ([5]; 45 mg/kg IV q7d×2) was 7.8 ×1000 cells/μL, the mice developing ataxia ([5]; 45 mg/kg IV q7d×2, Day 14) was “One mouse” and the “body weight lost after the second treatment, by the end of the study” value ([5]; 60 mg/kg IV q7d×2, Day 14) was 19%. For the same molecule, the Lymphocyte mean ([5]; 60 mg/kg IV q7d×2) was 5590 cells/μL, the Neutrophil mean ([5]; 60 mg/kg IV q7d×2) was 470 cells/μL and the “WBC # mean” value ([5]; 60 mg/kg IV q7d×2) was 6.2 ×1000 cells/μL. For the same molecule, the mice developing ataxia ([5]; 60 mg/kg IV q7d×2) was “Five out of five mice”, the “Ataxia (%)” value ([5]; dose 30 mg/kg) was 0% and the “Ataxia (%)” value ([5]; dose 45 mg/kg) was 20%. For the same molecule, the “Ataxia (%)” value ([5]; dose 60 mg/kg) was 100% and the serum chemistry parameters ([5]; doses up to 60 mg/kg) was “did not affect any serum chemistry parameter”.
With `COc1cccc2c1C(=O)c1c(O)c3c(c(O)c1C2=O)C[C@@](O)(C(=O)CO)C[C@@H]3O[C@H]1C[C@H](N)[C@H](O)[C@H](C)O1` [Free doxorubicin, doxorubicin] the IC50 (B16.F10 cells) was 14 µM.
With `CC(=O)O[C@H]1C(=O)[C@@]2(C)[C@H]([C@H](OC(=O)c3ccccc3)[C@]3(O)C[C@H](OC(=O)[C@H](O)[C@@H](NC(=O)c4ccccc4)c4ccccc4)C(C)=C1C3(C)C)[C@]1(OC(C)=O)CO[C@@H]1C[C@@H]2O` [Free paclitaxel, paclitaxel] the IC50 (B16.F10 cells) was 7 µM.
With `OC[C@H]1O[C@@](CO)(O[C@H]2O[C@H](CO)[C@@H](O)[C@H](O)[C@H]2O)[C@@H](O)[C@@H]1O` [Sucrose, sucrose] the “Filtration Loss (0.2 μm PES Filter)” value [6, 12] was 2%, the “Lyophilized preparation Appearance” value [6, 12] was “good” and the “Recon. Solution Appearance” value [6, 12] was “good”. It also gave a Dv90 [6, 12] of 120 nm, a PDI [6, 12] of 0.081 and a Zave [6, 12] of 90.62 nm. For the same molecule, the “Filtration Loss (0.2 μm PES Filter)” value [6, 13] was 2%, the “Lyophilized preparation Appearance” value [6, 13] was “good” and the “Recon. Solution Appearance” value [6, 13] was “good”. For the same molecule, the Dv90 [6, 13] was 120 nm, the PDI [6, 13] was 0.081 and the Zave [6, 13] was 91.37 nm. For the same molecule, the “Filtration Loss (0.2 μm PES Filter)” value [6, 14] was 10%, the “Lyophilized preparation Appearance” value [6, 14] was “good” and the “Recon. Solution Appearance” value [6, 14] was “good”. For the same molecule, the PDI [6, 14] was 0.110, the Zave [6, 14] was 92.79 nm and the “Lyophilized preparation Appearance” value [6, 15] was “good”. The “Recon. Solution Appearance” value [6, 15] was “slight”, the “Filtration Loss (0.2 μm PES Filter)” value ([6]; polymer 31.25 mg/mL (Doce. 1.50), cryoprotectant 100 mg/mL (3.2:1 w/w)) was 15% and the PDI [6, 15] was 0.125. It also gave a Zave [6, 15] of 94.72 nm, a Dv90 [7] of 155 nm and a PDI [7] of 0.207. The “Reconstituted Solution appearance” value [7] was “precipitation”, the Zave [7] was 197.2 nm and the Dv90 [8, 16] was 58.5 nm. It also gave a PDI [8, 16] of 0.390, a Zave [8, 16] of 142.4 nm and a Dv90 [8, 17] of 533 nm. For the same molecule, the PDI [8, 17] was 0.484, the Zave [8, 17] was 219.3 nm and the Dv90 [8, 18] was 1640 nm. For the same molecule, the PDI [8, 18] was 0.506, the Zave [8, 18] was 200.2 nm and the “outcome after lyophilization (in place of particle size)” value [9] was “Precipitated”.
For doxorubicin 5050 PLGA amide, the “growth of B16.F10 cells” value (B16.F10 cells; 24, 48 and 72 hours of incubation) was “inhibited the growth of B16.F10 cells in a dose and time dependent manner”.
